According to publication PMC10380584, “Functional Characterization of Pheromone Receptors in the Beet Webworm, Loxostege sticticalis (Lepidoptera: Pyralidae)” (Insects, 2023):

Test system: T1, LstiPR2/LstiORco
T1 construct: full-length LstiPR2 (ORF 1263 bp, printed 421 aa) co-expressed with LstiORco (cRNA 1:1) in Xenopus laevis oocytes, pT7Ts vector; cloned from male antennae; with Odorant receptor coreceptor
Assay: two-electrode voltage clamp, Xenopus oocytes
Format: cell-based, Loxostege sticticalis
Details: agonist; co-expressed with LstiORco; holding potential -80 mV; Ringer's buffer pH 7.6
From the text: two-electrode voltage clamp, Xenopus oocytes on LstiPR2/LstiORco | LstiPR2/LstiORco was sensitive to E11-14:OAc

EC50: 12.5 µM
SMILES: CC/C=C/CCCCCCCCCCOC(C)=O [E11-14:OAc, (E)-11-tetradecenyl acetate]
